Calls of active or inactive are those of the source.
Columns and labels:
[1] = biological target: FAD-linked sulfhydryl oxidase ALR (Homo sapiens, UniProt P55789); experiment: inhibitors of human ALR sulfhydryl oxidase, dose response, biochemical, H2O2 detection, luminescence, cherry-pick (AID 493248)
[2] = biological target: T1, Microphthalmia-associated transcription factor (Homo sapiens, UniProt O75030); experiment: TRPM1 promoter luciferase signal decrease, dose response, MITF inhibitor project, cell-based, SK-MEL-5, cherry-picked, set 3 (AID 493073); type: functional
T1 sequence (O75030 whole entry): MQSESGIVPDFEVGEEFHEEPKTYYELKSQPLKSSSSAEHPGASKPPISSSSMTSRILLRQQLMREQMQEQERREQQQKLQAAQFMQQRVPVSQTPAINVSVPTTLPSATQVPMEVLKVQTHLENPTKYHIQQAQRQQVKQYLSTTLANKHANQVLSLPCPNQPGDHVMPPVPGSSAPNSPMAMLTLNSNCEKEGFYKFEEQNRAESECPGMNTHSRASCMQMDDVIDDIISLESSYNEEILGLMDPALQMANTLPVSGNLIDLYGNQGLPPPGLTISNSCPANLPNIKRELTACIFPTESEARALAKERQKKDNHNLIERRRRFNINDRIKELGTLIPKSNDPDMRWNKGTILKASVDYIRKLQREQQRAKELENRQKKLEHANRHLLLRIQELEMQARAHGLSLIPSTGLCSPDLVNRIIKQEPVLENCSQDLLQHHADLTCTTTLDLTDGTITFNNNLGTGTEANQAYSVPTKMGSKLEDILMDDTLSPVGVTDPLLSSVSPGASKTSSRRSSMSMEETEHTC

[3] = biological target: T2, High affinity choline transporter 1 (Homo sapiens, UniProt Q9GZV3); experiment: CHT inhibitors, dose response, cell-based, 5-point CRC, membrane potential dye (AID 504840); type: functional
T2 sequence (Q9GZV3 whole entry): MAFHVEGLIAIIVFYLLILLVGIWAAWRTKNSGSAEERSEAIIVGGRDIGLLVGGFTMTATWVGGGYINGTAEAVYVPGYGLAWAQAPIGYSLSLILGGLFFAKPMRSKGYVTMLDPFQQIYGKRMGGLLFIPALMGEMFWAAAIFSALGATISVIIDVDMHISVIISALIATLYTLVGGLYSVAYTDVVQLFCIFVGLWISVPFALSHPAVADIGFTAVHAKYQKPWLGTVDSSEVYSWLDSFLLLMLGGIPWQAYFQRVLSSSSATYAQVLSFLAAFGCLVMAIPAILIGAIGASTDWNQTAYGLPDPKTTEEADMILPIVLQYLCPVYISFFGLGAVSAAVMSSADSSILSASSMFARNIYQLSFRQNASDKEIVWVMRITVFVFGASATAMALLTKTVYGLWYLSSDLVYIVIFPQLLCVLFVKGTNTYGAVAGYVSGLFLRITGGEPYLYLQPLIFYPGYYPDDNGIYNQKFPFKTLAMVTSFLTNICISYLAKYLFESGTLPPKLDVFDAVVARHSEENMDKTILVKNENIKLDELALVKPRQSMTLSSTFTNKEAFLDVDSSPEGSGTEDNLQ

Leucine aminopeptidase = biological target: T3, Leucine aminopeptidase (Plasmodium falciparum 3D7, UniProt Q8IL11); experiment: P. falciparum M17LAP inhibitors, primary screen, biochemical, fluorogenic H-Leu-NHMec substrate, 1536-well (AID 1619); type: functional
T3 sequence (Q8IL11 whole entry): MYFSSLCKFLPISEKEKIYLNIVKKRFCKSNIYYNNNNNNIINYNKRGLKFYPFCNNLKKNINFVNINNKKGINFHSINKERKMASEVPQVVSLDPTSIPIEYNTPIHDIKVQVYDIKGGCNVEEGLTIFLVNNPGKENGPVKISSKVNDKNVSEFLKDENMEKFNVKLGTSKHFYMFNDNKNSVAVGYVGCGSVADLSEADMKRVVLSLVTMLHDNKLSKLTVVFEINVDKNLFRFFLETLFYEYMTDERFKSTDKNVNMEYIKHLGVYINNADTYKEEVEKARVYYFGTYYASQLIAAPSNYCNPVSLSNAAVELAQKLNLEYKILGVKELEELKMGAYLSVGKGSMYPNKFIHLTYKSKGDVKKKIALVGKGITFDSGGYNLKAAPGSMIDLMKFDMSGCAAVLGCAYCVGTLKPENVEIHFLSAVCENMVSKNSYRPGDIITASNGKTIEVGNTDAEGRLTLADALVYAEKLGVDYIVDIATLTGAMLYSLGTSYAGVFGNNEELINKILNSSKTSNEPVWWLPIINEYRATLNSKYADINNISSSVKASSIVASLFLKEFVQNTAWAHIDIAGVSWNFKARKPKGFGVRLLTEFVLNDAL

Streptokinase A = biological target: T4, Streptokinase A (Streptococcus pyogenes serotype M1, UniProt P10520); experiment: S. pyogenes streptokinase expression inhibitors, potency, dose response, plasminogen activation absorbance, OD405 (AID 1914); type: functional, Streptococcus pyogenes M1 GAS;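 also: secreted streptokinase activity via plasminogen activation per viability signal from cell pellet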
T4 sequence (P10520 whole entry): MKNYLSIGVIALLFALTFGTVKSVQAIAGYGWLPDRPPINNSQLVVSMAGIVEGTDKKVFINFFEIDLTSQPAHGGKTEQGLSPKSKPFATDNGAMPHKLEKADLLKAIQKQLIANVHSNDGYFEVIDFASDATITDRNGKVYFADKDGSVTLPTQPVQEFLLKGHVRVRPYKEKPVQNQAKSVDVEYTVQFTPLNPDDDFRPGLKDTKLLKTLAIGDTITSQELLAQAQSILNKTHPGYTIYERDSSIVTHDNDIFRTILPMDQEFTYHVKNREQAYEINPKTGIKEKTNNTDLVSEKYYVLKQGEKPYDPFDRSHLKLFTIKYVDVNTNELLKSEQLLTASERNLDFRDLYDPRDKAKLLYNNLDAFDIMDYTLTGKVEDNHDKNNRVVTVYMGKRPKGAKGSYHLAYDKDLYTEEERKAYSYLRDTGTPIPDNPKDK

Cytochrome P450 2C9 = Cytochrome P450 2C9 (Homo sapiens, UniProt P11712)
[4] = Luminescence Cell-Based Dose Response HTS to Identify Activators of Luciferase Translation or Activity in H4 […] Cells. [Related pubchem assays: 1829 (Project Summary), 1814 (Primary HTS)]; type: functional
Streptococcus = experiment: Group A Streptococcus viability loss, dose response, counter-screen for streptokinase expression inhibitor project, luminescence, BacTiterGlo (AID 1915); type: functional, organism-based;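 also: potency for reduction of bacterial viability or growth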
[5] = system: Streptococcus sp. 'group A'; experiment: growth inhibition of control SK(-) GAS strain, dose response, counter-screen for streptokinase expression inhibitor project, luminescence, kanamycin, BacTiterGlo, confirmation (AID 1900); type: functional, organism-based
H4 = experiment: Luminescence Cell-Based Dose Response HTS to Identify Activators of 5'UTR Stem-Loop Driven Prion Protein mRNA Translation in H4 Neuroglioblastoma Cells. [Related pubchem assays: 1829 (Project Summary), 1814 (Primary HTS)]; type: functional; details: Homo sapiens
[6] = biological target: T5, Short transient receptor potential channel 4 (Mus musculus, UniProt Q9QUQ5); experiment: mouse TRPC4 channel activators, dose response, cell-based, HEK293 TRPC4/mu-opioid, Fluo-4 calcium (AID 434937); type: functional
T5 sequence (Q9QUQ5 whole entry): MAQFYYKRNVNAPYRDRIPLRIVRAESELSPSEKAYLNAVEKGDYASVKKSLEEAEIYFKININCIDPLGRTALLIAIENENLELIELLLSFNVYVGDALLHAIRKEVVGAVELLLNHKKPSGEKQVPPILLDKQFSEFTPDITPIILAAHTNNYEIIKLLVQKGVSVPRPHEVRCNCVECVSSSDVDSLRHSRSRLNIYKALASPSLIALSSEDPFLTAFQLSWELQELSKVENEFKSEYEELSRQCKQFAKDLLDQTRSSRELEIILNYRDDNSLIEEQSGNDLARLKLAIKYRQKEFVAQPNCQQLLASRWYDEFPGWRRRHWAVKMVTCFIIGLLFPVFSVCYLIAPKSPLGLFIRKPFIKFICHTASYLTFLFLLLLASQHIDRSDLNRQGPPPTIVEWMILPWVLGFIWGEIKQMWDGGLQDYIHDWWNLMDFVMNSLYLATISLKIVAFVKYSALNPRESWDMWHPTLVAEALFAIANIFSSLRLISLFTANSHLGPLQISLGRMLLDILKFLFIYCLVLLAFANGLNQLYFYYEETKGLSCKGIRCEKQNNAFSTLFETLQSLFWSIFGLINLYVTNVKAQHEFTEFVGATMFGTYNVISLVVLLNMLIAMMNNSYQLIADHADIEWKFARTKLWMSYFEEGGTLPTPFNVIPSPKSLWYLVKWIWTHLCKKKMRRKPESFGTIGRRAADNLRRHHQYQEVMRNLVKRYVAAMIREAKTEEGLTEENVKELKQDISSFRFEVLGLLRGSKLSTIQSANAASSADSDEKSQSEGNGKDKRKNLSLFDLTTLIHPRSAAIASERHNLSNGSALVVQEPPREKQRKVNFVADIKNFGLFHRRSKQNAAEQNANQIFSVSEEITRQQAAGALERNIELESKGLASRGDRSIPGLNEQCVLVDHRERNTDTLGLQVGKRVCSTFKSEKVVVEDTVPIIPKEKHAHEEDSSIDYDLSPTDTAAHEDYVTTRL

[7] = biological target: T6, Polyadenylate-binding protein 1 (Homo sapiens, UniProt P11940); experiment: PABP1 MLLE–PAM2 binding inhibitor potency, dose response, biochemical, fluorescence polarization, FITC-PAM2 peptide (AID 602259); type: functional; details: read-out: IC50_Mean
[8] = biological target: T6, Polyadenylate-binding protein 1; experiment: PABP1 MLLE–PAM2 interaction inhibitors, dose response, miRNA deadenylation inhibitor project, biochemical, fluorescence polarization, Cy5-PAM2 peptide, secondary (AID 602260); type: functional; details: read-out: IC50_Mean
[9] = biological target: T7, Corticotropin-releasing factor receptor 2/Corticotropin-releasing factor-binding protein (Homo sapiens, UniProt P24387+Q13324); experiment: activators of CRF receptor 2 with binding protein – uHTS hits, confirmation (AID 602473); type: functional; details: read-out: EC50_Mean
T7 sequence (Q13324 whole entry): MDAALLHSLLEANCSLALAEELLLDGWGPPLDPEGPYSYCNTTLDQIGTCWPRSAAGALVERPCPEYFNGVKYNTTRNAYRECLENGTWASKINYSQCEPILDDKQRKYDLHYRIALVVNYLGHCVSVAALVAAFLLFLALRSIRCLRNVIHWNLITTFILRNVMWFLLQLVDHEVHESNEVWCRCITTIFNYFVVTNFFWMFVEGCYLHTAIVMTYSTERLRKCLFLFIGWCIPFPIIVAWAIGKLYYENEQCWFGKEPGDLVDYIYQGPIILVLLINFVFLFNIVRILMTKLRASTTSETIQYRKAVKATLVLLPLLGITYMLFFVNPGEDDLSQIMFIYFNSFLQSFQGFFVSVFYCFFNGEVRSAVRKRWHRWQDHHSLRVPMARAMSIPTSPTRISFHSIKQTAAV
T7 sequence (P24387 whole entry): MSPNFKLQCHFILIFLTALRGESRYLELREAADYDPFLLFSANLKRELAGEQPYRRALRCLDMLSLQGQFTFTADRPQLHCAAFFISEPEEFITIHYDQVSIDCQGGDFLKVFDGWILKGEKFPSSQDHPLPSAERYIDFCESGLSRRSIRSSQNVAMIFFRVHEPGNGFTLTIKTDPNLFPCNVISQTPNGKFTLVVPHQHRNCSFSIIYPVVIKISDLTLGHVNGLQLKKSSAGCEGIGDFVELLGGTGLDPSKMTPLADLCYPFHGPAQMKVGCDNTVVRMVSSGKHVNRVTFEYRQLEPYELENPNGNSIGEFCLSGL

[10] = inhibitors of intracellular T. cruzi replication, confirmation, NIH3T3 host cells, beta-gal luminescence (AID 2044); type: functional, cell-based;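 also: intracellular parasites grown in NIH/3T3 mouse fibroblasts as host cells; luminescent beta-galactosidase reporter signal from transgenic T. cruzi replicating inside host cells; inhibitors lower the luminescence signal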
[11] = cytotoxicity toward NIH3T3 fibroblasts, dose response, counter-screen, cell-based, ATP luminescence, mouse fibroblasts (AID 2010); type: functional;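 also: cells exposed to compound for about 90 hours before reading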
Cytochrome P450 3A4 = Cytochrome P450 3A4 (Homo sapiens, UniProt P08684);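 also: CYP3A4 tested as one member of a cytochrome P450 panel screen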
Cytochrome P450 2C19 = Cytochrome P450 2C19 (Homo sapiens, UniProt P33261); experiment: Cytochrome panel assay with activity outcomes. Panel member name: p450-cyp2c19 Compounds with AC50 equal or less than 10 uM are considered active; type: functional; details: read-out: AC50
Cytochrome P450 2D6 = Cytochrome P450 2D6 (Homo sapiens, UniProt P10635);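 also: CYP2D6 member of a cytochrome P450 panel assay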
Chain of Cytochrome P450 2D6 (P10635 whole entry): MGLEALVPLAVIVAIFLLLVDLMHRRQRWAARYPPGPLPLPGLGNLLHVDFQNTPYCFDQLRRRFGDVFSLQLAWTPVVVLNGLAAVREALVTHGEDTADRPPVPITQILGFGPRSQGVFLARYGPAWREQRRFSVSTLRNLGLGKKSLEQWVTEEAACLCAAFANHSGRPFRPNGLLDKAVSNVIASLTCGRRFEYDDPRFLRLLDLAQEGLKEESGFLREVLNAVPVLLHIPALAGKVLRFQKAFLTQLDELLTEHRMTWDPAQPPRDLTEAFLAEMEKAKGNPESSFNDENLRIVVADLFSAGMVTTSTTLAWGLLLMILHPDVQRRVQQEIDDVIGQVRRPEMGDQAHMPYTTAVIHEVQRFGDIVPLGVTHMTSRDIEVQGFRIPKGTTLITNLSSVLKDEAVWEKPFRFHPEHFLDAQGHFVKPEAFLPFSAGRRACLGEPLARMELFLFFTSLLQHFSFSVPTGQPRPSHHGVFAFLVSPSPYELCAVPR

Chain of Cytochrome P450 2C9 (P11712 whole entry): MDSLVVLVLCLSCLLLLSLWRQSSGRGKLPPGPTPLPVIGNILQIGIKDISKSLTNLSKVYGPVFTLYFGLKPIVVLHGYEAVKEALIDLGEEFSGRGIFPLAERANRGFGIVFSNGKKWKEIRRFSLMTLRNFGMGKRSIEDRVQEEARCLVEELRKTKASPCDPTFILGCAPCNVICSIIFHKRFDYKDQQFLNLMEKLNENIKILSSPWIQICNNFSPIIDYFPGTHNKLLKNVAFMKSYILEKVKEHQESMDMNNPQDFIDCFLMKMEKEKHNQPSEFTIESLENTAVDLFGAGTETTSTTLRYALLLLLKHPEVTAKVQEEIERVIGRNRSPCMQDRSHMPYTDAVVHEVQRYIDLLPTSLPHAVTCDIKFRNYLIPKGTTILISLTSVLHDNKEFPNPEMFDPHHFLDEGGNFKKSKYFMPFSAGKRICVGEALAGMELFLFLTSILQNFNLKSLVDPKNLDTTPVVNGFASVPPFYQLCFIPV
Chain of Cytochrome P450 3A4 (P08684 whole entry): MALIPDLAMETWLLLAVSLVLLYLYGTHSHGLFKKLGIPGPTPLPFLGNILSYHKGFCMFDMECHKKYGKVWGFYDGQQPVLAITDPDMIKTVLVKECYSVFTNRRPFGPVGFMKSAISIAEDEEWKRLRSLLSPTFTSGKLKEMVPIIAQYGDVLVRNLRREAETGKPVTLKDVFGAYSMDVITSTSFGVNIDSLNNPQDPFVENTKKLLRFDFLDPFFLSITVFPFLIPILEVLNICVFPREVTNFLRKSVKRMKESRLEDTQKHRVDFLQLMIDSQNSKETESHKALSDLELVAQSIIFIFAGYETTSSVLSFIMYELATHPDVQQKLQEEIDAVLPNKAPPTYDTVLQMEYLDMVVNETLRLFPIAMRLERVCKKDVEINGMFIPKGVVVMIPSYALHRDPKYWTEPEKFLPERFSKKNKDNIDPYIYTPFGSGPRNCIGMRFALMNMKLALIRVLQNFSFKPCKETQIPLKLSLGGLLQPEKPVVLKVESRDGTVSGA
T6 sequence (P11940 whole entry): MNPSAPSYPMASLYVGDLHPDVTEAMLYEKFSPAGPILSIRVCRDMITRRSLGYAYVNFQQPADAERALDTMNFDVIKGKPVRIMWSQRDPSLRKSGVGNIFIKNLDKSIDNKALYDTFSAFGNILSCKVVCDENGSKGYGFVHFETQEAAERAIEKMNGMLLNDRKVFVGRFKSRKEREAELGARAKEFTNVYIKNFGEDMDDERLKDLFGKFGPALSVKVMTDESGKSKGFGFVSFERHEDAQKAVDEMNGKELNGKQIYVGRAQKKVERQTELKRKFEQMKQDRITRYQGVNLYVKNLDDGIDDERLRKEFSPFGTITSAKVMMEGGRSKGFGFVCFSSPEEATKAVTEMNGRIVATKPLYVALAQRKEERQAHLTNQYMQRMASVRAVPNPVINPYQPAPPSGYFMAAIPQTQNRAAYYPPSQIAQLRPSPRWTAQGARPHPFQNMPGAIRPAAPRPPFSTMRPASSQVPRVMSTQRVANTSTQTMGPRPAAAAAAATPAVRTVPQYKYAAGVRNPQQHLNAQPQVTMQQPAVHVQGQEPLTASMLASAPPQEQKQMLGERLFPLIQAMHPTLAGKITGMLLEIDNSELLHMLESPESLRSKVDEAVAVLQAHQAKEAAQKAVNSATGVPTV
Chain of Cytochrome P450 2C19 (P33261 whole entry): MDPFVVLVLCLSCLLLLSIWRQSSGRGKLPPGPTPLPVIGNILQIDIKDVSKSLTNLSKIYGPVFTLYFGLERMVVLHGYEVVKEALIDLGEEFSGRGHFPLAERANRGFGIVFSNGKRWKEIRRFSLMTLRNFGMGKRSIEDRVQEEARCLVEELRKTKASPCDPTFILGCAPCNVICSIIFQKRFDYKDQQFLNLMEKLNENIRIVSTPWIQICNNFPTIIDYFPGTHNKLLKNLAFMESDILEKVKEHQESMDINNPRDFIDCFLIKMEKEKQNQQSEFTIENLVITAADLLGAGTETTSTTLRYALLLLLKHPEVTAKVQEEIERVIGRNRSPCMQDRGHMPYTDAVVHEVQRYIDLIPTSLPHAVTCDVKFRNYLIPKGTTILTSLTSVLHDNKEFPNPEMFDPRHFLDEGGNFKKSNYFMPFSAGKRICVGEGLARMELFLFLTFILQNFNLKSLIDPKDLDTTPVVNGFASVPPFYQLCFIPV
Chain of FAD-linked sulfhydryl oxidase ALR (P55789 whole entry): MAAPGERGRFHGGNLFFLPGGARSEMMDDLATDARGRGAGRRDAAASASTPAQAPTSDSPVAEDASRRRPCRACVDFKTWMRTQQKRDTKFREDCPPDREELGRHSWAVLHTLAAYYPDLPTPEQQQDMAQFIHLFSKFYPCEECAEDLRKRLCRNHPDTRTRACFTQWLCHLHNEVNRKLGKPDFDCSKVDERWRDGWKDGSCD

With `CC(/C=C1\SC(=O)N(CCCC(=O)O)C1=O)=C\c1ccccc1` the AC50 [1] was 4.84 µM (active), the AC50 [2] was 2.36 µM (active) and the IC50 [3] was 12.6 µM (active). For the same compound, the IC50 (Leucine aminopeptidase) was 15.8 µM (active).

For `CCOc1c(OC(C)=O)ccc(/C=C/c2ccc3cccc(OC(C)=O)c3n2)c1[N+](=O)[O-]`, the EC50 (Streptokinase A) was > 150 µM (not active), the AC50 (Cytochrome P450 2C9) was “inconclusive” and the EC50 [4] was 8.52 µM (active). The EC50 (Streptococcus) was 8.24 µM (active), the EC50 [5] was 1.49 µM (active) and the EC50 (H4) was 8.07 µM (active).

In the case of `O=C(COc1ccc2ccccc2c1Br)NNC(=O)Nc1ccccc1`, the AC50 (Cytochrome P450 2C9) is reported as “inconclusive”.

For `O=C(Nc1ccc(Cl)cc1)N1CCC(c2nc(-c3cccs3)no2)CC1`, the EC50 [6] was 3.35 µM (active).

For `COc1ccc(/C=C/CN2CCCC(C(=O)c3ccc(OC)c(F)c3)C2)cc1` (centres undefined), the EC50 [6] was 10.6 µM (active).

For `CCOC(=O)C1(CCCc2ccccc2)CCN(Cc2cn(CC)nc2C)CC1`, the EC50 [6] was 0.119 µM (active).

With `CCN1CCN(c2c(Cl)cccc2NC(=O)c2ccc([N+](=O)[O-])cc2)CC1` the EC50 [6] was 0.421 µM (active).

For `CC12CCCCN1CCCc1c2[nH]c2ccccc12` (centres undefined), the IC50 [7] was > 66 µM (inactive), the IC50 [8] was > 66 µM (inactive) and the EC50 [9] was 4.38 µM (active). For the same compound, the EC50 [6] was 4.22 µM (active).

In the case of `Cc1cc(Br)cc(C)c1OCCCCN(C)C.O=C(O)C(=O)O`, the EC50 [10] is reported as 0.196 µM (active), the AC50 (Cytochrome P450 2C9) is reported as “inconclusive” and the EC50 [11] is reported as > 30 µM (not active).

With `Cc1ccc(/C=N/NC(=O)C2CCN(Cc3ccc(F)cc3Cl)CC2)o1` the AC50 (Cytochrome P450 3A4) was 5.01 µM (inconclusive), the AC50 (Cytochrome P450 2C19) was 31.6 µM (inconclusive) and the AC50 (Cytochrome P450 2D6) was 35.5 µM (inconclusive). For the same compound, the AC50 (Cytochrome P450 2C9) was “inconclusive”.

With `COc1ccc(NC(=O)c2cc(-c3ccccc3Cl)no2)cc1` the AC50 (Cytochrome P450 3A4) was 20 µM (inconclusive), the AC50 (Cytochrome P450 2C19) was 2.82 µM (inconclusive) and the AC50 (Cytochrome P450 2C9) was “inconclusive”.

— ChEMBL document CHEMBL1201862, “PubChem BioAssay data set” (2004)
